# Laboratory results taken from EPA's ToxRefDB 2.
# Legend:
# rat [1] = settings: Multigenerational reproductive toxicity study, sprague dawley, Inhalation, Whole-Body, dose end: 2 generation
# mouse [2] = settings: Carcinogenicity; cd1; Inhalation; Whole-Body; dose end: 18 month; group: systemic; systemic / in life observation / body weight / body weight gain + systemic / in life observation / mortality / mortality + systemic / …
# dog [3] = settings: Subchronic inhalation toxicity, beagle, Whole-Body, dose end: 13 week, group: systemic, systemic / in life observation / body weight / body weight + systemic / in life observation / body weight / body weight gain + systemic / …
# rat [4] = settings: Multigenerational reproductive toxicity study, sprague dawley, Inhalation, Whole-Body, dose end: 2 generation; remark: listed apart in the source
# rabbit [5] = settings: Subchronic inhalation toxicity, new zealand white, Whole-Body, dose end: 13 week, group: systemic
# rat [6] = settings: Combined chronic toxicity/carcinogenicity, fischer, Inhalation, Whole-Body, dose end: 104 week, group: systemic
# rat [7] = settings: Subchronic inhalation toxicity, fischer, Whole-Body, dose end: 14 day, group: systemic
# rat [8] = settings: Subchronic oral toxicity in rodents, fischer, Inhalation, Whole-Body, dose end: 90 day, group: systemic
# dog [9] = settings: Chronic toxicity; beagle; Inhalation; Whole-Body; dose end: 12 month; group: systemic; systemic / in life observation / body weight / body weight gain + systemic / in life observation / clinical signs / dental fluorosis + …
# rabbit [10] = settings: Subchronic inhalation toxicity, new zealand white, Whole-Body, dose end: 14 day, group: systemic, systemic / pathology microscopic / brain / necrosis + systemic / pathology microscopic / brain / vacuolization + systemic / pathology …
# mouse [11] = settings: Subchronic inhalation toxicity, cd1, Whole-Body, dose end: 13 week, group: systemic
# [12] = group: offspring, systemic / in life observation / body weight / offspring (pup) weight
# [13] = group: parental, systemic / pathology microscopic / lung / alveolar macrophages + systemic / in life observation / body weight / body weight + systemic / in …
# [14] = group: parental, systemic / pathology microscopic / lung / alveolar macrophages + systemic / pathology gross / lung / foci
# [15] = group: parental, systemic / pathology gross / lung / foci + systemic / pathology microscopic / lung / alveolar macrophages
# [16] = group: parental, systemic / pathology gross / lung / foci + systemic / pathology microscopic / lung / alveolar macrophages + systemic / in life observation…
# [17] = systemic / in life observation / body weight / body weight + systemic / in life observation / body weight / body weight gain + systemic / …
# [18] = systemic / pathology microscopic / nose / inflammation + systemic / clinical chemistry / flouride / fluoride
# [19] = systemic / in life observation / clinical signs / dental fluorosis
# [20] = systemic / in life observation / clinical signs / dental fluorosis + systemic / clinical chemistry / albumin / albumin + systemic / clinical…
# [21] = systemic / pathology microscopic / kidney / hyperplasia + systemic / pathology microscopic / kidney / basophilia
# [22] = systemic / pathology microscopic / kidney / hyperplasia + systemic / pathology microscopic / kidney / basophilia + systemic / in life …
# [23] = systemic / organ weight / brain / absolute + systemic / in life observation / clinical signs / tooth-mottling + systemic / pathology …
# [24] = systemic / pathology microscopic / nose / inflammation
smiles,measurement,setting,value
O=S(=O)(F)F [Sulfuryl fluoride],LEL,rat [1]; [12],108 mg/kg/day
same,LOAEL,rat [1]; [12],108 mg/kg/day
same,NEL,rat [1]; [12],14 mg/kg/day
same,NOAEL,rat [1]; [12],14 mg/kg/day
same,NEL,rat [1]; [13],3.6 mg/kg/day
same,NOAEL,rat [1]; [13],3.6 mg/kg/day
same,LEL,rat [1]; [14],14 mg/kg/day
same,LOAEL,rat [1]; [14],14 mg/kg/day
same,LEL,mouse [2],79.3 mg/kg/day
same,LOAEL,mouse [2],79.3 mg/kg/day
same,NEL,mouse [2],19.8 mg/kg/day
same,NOAEL,mouse [2],19.8 mg/kg/day
same,LEL,dog [3],200 ppm
same,LOAEL,dog [3],200 ppm
same,NEL,dog [3],100 ppm
same,NOAEL,dog [3],100 ppm
same,LEL,rat [4]; [12],108 mg/kg/day
same,LOAEL,rat [4]; [12],108 mg/kg/day
same,NEL,rat [4]; [12],14 mg/kg/day
same,NOAEL,rat [4]; [12],14 mg/kg/day
same,LEL,rat [4]; [15],14 mg/kg/day
same,LOAEL,rat [4]; [15],14 mg/kg/day
same,NEL,rat [4]; [16],3.6 mg/kg/day
same,NOAEL,rat [4]; [16],3.6 mg/kg/day
same,LOAEL,rabbit [5]; [17],100 ppm
same,NOAEL,rabbit [5]; [17],29.8 ppm
same,LEL,rabbit [5]; [18],29.8 ppm
same,NEL,rabbit [5]; [18],< 29.8 ppm
same,LEL,rat [6]; [19],20 ppm
same,LOAEL,rat [6]; [19],20 ppm
same,NEL,rat [6]; [20],5 ppm
same,NOAEL,rat [6]; [20],5 ppm
same,LEL,rat [7]; [21],249 mg/kg/day
same,LOAEL,rat [7]; [21],249 mg/kg/day
same,NEL,rat [7]; [22],83 mg/kg/day
same,NOAEL,rat [7]; [22],83 mg/kg/day
same,LOAEL,rat [8]; [23],5 mg/kg/day
same,NOAEL,rat [8]; [23],1.49 mg/kg/day
same,LEL,rat [8]; [24],1.49 mg/kg/day
same,NEL,rat [8]; [24],< 1.49 mg/kg/day
same,LEL,dog [9],80 ppm
same,LOAEL,dog [9],80 ppm
same,NEL,dog [9],20 ppm
same,NOAEL,dog [9],20 ppm
same,LEL,rabbit [10],90 mg/kg/day
same,LOAEL,rabbit [10],90 mg/kg/day
same,NEL,rabbit [10],30 mg/kg/day
same,NOAEL,rabbit [10],30 mg/kg/day
same,LEL,mouse [11]; systemic / clinical chemistry / flouride / fluoride,30 ppm
same,LOAEL,mouse [11]; [17],100 ppm
same,NEL,mouse [11]; [17],10 ppm
same,NOAEL,mouse [11]; [17],30 ppm
